Measurements reported in PMC10182041, “A first-in-class inhibitor of Hsp110 molecular chaperones of pathogenic fungi” (Nature Communications, 2023).

Experiments:
Ssa1 = Ssa1 (Saccharomyces cerevisiae, UniProt P10591); experiment: displacement of pre-bound ATP-FAM, fluorescence polarization; type: binding
Msi3 [1] = biological target: Msi3 (Candida albicans, UniProt Q96VB9); experiment: IC50 from the luciferase holdase assay; type: biochemical
Sse1 = biological target: T1, Sse1 (Saccharomyces cerevisiae, UniProt P32589); experiment: reduction of ATP-FAM binding to purified Sse1, fluorescence polarization; type: biochemical
T1 sequence (P32589 1-693): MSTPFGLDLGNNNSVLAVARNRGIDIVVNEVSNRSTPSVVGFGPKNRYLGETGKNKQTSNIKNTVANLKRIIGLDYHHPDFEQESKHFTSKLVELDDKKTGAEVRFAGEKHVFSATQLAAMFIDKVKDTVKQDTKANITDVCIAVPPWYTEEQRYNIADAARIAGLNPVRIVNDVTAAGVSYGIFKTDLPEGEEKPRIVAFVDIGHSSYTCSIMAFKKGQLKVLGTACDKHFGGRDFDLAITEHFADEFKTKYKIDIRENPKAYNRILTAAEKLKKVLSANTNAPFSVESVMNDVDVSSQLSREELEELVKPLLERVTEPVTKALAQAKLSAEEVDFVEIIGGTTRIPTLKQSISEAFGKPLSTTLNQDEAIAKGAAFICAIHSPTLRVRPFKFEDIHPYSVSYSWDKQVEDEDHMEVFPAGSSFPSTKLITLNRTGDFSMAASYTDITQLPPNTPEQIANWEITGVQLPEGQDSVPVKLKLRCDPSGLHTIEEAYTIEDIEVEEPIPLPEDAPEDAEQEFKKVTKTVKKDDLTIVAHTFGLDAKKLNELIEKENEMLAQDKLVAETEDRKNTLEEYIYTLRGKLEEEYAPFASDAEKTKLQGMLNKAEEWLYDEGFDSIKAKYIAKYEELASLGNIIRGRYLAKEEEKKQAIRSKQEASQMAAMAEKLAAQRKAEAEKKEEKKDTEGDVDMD

Msi3 [2] = biological target: Msi3 (Candida albicans, UniProt Q96VB9, I164D); experiment: luciferase aggregation (holdase) assay at OD320 with purified mutant; type: biochemical
Sequence of Msi3 (Candida albicans, UniProt Q96VB9, I164D) (Q96VB9 whole entry I164D): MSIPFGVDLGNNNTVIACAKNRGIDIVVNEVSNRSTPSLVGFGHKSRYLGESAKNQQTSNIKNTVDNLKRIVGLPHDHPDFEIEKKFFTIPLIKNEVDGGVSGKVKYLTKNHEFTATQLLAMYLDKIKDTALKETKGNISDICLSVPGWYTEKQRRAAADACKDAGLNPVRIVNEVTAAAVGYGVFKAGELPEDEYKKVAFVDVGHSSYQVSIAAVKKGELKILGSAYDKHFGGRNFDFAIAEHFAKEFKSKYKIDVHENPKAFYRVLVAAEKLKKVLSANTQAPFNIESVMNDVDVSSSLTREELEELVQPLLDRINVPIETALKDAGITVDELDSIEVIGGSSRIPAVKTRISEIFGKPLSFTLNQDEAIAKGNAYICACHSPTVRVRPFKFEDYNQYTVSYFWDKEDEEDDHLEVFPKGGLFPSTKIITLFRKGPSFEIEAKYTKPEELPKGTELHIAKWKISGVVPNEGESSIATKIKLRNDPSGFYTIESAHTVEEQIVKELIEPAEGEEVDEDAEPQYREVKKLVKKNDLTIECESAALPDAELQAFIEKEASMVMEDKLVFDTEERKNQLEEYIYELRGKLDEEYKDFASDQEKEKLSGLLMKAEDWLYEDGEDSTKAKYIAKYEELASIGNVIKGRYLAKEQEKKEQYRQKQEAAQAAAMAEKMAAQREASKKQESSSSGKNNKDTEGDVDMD

Sequence of Msi3 (Candida albicans, UniProt Q96VB9) (Q96VB9 whole entry): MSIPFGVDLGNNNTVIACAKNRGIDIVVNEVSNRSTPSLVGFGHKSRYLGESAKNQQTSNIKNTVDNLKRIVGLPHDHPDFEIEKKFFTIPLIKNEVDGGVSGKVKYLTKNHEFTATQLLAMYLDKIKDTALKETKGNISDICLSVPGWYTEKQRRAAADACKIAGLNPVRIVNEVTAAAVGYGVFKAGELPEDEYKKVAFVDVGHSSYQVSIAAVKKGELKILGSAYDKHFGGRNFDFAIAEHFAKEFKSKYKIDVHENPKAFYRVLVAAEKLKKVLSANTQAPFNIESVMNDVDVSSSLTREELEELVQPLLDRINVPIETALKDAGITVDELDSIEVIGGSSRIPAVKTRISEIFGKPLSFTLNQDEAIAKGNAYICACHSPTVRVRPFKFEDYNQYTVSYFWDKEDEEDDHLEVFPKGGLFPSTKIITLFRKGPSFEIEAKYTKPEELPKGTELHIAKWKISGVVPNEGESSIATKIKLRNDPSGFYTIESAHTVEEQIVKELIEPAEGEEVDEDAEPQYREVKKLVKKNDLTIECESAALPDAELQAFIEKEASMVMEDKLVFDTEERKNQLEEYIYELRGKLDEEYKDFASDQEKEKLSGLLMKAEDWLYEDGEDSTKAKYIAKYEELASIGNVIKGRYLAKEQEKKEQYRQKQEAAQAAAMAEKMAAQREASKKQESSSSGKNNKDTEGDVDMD
Sequence of Ssa1 (P10591 2-642): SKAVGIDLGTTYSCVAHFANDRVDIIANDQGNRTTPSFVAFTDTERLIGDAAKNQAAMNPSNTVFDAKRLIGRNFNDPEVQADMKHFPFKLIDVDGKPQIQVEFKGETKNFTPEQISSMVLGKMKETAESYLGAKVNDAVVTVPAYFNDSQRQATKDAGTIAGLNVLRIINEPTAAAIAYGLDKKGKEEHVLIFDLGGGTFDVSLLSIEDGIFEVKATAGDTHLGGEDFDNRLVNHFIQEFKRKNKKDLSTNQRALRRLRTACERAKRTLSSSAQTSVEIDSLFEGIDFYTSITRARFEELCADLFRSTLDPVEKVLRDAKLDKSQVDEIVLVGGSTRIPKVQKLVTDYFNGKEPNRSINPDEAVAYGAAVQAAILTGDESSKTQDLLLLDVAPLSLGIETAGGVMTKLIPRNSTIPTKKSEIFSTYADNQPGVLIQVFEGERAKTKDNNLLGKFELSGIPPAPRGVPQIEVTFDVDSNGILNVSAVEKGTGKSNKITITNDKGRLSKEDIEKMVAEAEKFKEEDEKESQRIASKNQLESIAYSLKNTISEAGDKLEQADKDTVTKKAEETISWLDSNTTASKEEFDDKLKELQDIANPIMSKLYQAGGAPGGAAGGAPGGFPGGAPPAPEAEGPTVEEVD

SMILES	displacement of pre-bound ATP-FAM, fluorescence polarization (Ssa1)	IC50 (Msi3 [1])	reduction of ATP-FAM binding to purified Sse1, fluorescence polarization (Sse1)	luciferase aggregation (holdase) assay at OD320 with purified mutant (Msi3 [2])
Nc1ncnc2c1ncn2[C@@H]1O[C@H](COP(=O)(O)OP(=O)(O)OP(=O)(O)O)[C@@H](O)[C@H]1O [ATP]	suggesting that the pre-bound ATP-FAM was slowly replaced by the regular ATP	–	–	–
Cc1cccc(COc2nc3c(cc2-c2nc(N)cc(N)n2)c(C)nn3-c2ccccc2)c1 [2H, HLQ2H]	–	5.02 ± 0.35 µM	2H showed a similar inhibition on Sse1 (Fig. S1a), the major Hsp110 from S. cerevisiae	A similar inhibition of holdase activity was observed for this mutant when treated with 2H (Fig. S6a)
